Measurements reported in publication PMC10288273, “Allosteric Activation of Transglutaminase 2 via Inducing an “Open” Conformation for Osteoblast Differentiation” (Advanced Science, 2023).

Target: T1, TGM2 (in MC3T3-E1 cells) (Mus musculus, UniProt P21981)
T1 construct: native full-length protein in MC3T3-E1 pre-osteoblast cells
T1 sequence (P21981 2-686): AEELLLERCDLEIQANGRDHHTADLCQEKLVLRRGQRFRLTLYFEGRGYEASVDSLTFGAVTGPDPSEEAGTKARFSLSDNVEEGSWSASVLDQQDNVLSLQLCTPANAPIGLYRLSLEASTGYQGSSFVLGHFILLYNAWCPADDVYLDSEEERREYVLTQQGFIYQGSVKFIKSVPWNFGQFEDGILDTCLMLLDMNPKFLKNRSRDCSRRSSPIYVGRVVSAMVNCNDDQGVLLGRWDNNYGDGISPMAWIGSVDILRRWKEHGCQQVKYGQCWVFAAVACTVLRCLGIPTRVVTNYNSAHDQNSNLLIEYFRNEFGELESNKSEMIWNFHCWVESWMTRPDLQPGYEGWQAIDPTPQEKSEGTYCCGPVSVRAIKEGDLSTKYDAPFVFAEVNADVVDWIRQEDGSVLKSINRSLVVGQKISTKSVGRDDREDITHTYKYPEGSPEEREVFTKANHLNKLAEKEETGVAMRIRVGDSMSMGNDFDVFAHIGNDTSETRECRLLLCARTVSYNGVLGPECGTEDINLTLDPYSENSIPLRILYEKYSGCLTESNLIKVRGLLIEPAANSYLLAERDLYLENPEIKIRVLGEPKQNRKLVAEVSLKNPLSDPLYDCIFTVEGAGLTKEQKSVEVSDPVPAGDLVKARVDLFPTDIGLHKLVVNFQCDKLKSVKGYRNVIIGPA
Assay: CETSA; DARTS
Format: cell-based

Question: With `C=C[C@@]1(C)CC(=O)[C@]2(O)[C@@]3(C)[C@@H](O)CCC(C)(C)[C@@H]3[C@H](O)[C@H](OC(C)=O)[C@@]2(C)O1` [Forskolin] as the molecule, how does the “thermal stabilisation (CETSA)” value read?
Answer: Its value is “FSK enhanced the thermal stability of TGM2”.
